Values of other authors as cited in patent US20210198372A1, “METHODS FOR DOSING AND FOR MODULATION OF GENETICALLY ENGINEERED CELLS” (Juno Therapeutics, Inc., priority 2017, published 2021).

Conditions: equivalence in terms of potency for various glucocorticoids; route (IV or PO; IV; none)

Compared with C[C@]12CCC(=O)C=C1CC[C@@H]1[C@@H]2[C@@H](O)C[C@@]2(C)[C@H]1CC[C@]2(O)C(=O)CO [Hydrocortisone], C[C@]12C=CC(=O)C=C1CC[C@@H]1[C@@H]2[C@@H](O)C[C@@]2(C)[C@H]1CC[C@]2(O)C(=O)CO [Prednisolone] is lower in “Equivalency Potency” value: 20 for the first, 5 for the second.

In the case of C[C@H]1C[C@@H]2[C@H]([C@@H](O)C[C@@]3(C)[C@H]2CC[C@]3(O)C(=O)COC(=O)CCC(=O)O)[C@@]2(C)C=CC(=O)C=C12 [Methylprednisolone sodium succinate], the “Equivalency Potency” value is given as 4.
